Assay results reported in BindingDB's records for doi:10.1016/S0960-894X(00)80255-3 (1991).

Each compound was assayed against Tyrosine-protein kinase Lck (Homo sapiens, UniProt P06239) (assay: ChEBML_210745).
Chain of Tyrosine-protein kinase Lck (P06239 whole entry): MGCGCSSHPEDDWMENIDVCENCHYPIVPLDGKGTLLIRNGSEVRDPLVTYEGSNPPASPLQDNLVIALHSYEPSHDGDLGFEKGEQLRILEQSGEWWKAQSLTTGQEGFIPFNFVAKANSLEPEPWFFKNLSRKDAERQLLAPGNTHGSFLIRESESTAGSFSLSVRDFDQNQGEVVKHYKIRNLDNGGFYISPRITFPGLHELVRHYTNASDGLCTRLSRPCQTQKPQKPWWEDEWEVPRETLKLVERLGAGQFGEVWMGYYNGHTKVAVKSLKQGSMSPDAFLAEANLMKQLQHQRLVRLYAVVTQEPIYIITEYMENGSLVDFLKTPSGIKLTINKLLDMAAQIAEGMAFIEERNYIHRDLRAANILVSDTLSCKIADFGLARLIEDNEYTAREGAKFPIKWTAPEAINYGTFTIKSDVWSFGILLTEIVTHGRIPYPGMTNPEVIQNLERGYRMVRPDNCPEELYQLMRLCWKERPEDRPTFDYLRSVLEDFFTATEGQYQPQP
Excerpt: Inhibitory concentration against phosphorylation of angiotensin I catalyzed by protein-tyrosine kinase p56lck
`COc1ccc(N=NCc2cccc(O)c2O)cc1` [3-[(4-Methoxy-phenyl)-hydrazonomethyl]-benzene-1,2-diol] showed an IC50 of 310 µM.
`O=[N+]([O-])c1ccc(C/N=N/c2ccccc2)cc1` showed an IC50 of over 3320 µM.
`c1ccc(N=NCc2ccccn2)cc1` [N-Phenyl-N'-[1-pyridin-2-yl-meth-(E)-ylidene]-hydrazine] was tested, and the IC50 was over 4060 µM.
`COc1ccc(CN=Nc2ccc(Br)cc2)cc1O` [5-[(4-Bromo-phenyl)-hydrazonomethyl]-2-methoxy-phenol] gave an IC50 of over 2490 µM.
`Brc1ccc(N=NCc2ccccn2)cc1` [N-(4-Bromo-phenyl)-N'-[1-pyridin-2-yl-meth-(E)-ylidene]-hydrazine] showed an IC50 of over 2900 µM.
Work on `COc1ccc(N=NCc2cc(O)ccc2O)cc1` [2-[(4-Methoxy-phenyl)-hydrazonomethyl]-benzene-1,4-diol] yielded an IC50 of 310 µM.
In the case of `O=[N+]([O-])c1ccc(/N=N\Cc2cccc(O)c2O)c([N+](=O)[O-])c1` [3-[(2,4-Dinitro-phenyl)-hydrazonomethyl]-benzene-1,2-diol], the IC50 is reported as over 2510 µM.
Compound `c1ccc(N=NCc2ccncc2)cc1` [N-Phenyl-N'-[1-pyridin-4-yl-meth-(E)-ylidene]-hydrazine] has an IC50 of over 4060 µM.
`O=[N+]([O-])c1cccc(C/N=N/c2ccccc2)c1` [N-[1-(3-Nitro-phenyl)-meth-(E)-ylidene]-N'-phenyl-hydrazine] was tested, and the IC50 was over 3320 µM.
In the case of `Oc1ccc(Br)cc1CN=Nc1ccccc1` [4-Bromo-2-(phenyl-hydrazonomethyl)-phenol], the IC50 is reported as over 2600 µM.
`Brc1ccc(N=NCc2ccncc2)cc1` [N-(4-Bromo-phenyl)-N'-[1-pyridin-4-yl-meth-(E)-ylidene]-hydrazine] showed an IC50 of over 2900 µM.
For `Brc1ccc(N=NCc2cccnc2)cc1` [N-(4-Bromo-phenyl)-N'-[1-pyridin-3-yl-meth-(E)-ylidene]-hydrazine], the IC50 was over 2900 µM.
